Reference: PMC9825622, “Leveraging molecular structure and bioactivity with chemical language models for de novo drug design” (Nature Communications, 2023)

Legend:
PI3Kγ = target: T1, PI3Kγ (Homo sapiens, UniProt P48736); assay: KINOMEscan biochemical kinase binding assay (Kd determination); conditions: for experimentally determined binding constant Kd: Fig. 4, commercially available compounds, absence of a value (−) = no observed binding; for Kd: average of N = 2 independent experiments
T1 construct: purchased Eurofins Discovery (KINOMEscan, fee-for-service)
Experimental: PI3Kγ binding assays were performed by Eurofins Discovery (https://www.eurofinsdiscoveryservices.com) on a fee-for-service basis. KINOMEscan™ was used to determine the dissociation constant Kd. […] Competition of the test compound with the immobilized ligand was measured via quantitative PCR (qPCR) of the DNA tag of DNA-tagged kinase. An 11-point three-fold serial dilution of each test compound was prepared in 100% DMSO at 100× final test concentration and subsequently diluted to 1× in the assay (final DMSO concentration = 1%). Dissociation constants were estimated with a standard dose-response curve using the Hill equation (Eq. 4)[71]:4 Response=Background+Signal−Background/1+KdHillslope/Dose^HillSlope, where the Hill slope was set to −1. Curves were fitted using a nonlinear least square fit with the Levenberg–Marquardt algorithm[72],[73].

[1] = system: HD-MB03 medulloblastoma cells; assay: CellTiter-Glo cell viability/proliferation assay; assay type: cell-based, human; conditions: for IC50: Homo sapiens, HD-MB03, 72 h, 72 h exposure, medium supplemented with FBS, read-out: IC50 (CellTiter-Glo viability, best-fit)
Experimental: HD-MBO3 Group 3 medulloblastoma cells were cultured in RPMI medium supplemented with 10% fetal bovine serum (FBS, both from Sigma-Aldrich, St. Louis, USA), 1% Penicillin-Streptomycin, and 1% GlutaMAX (both from Gibco/Thermo Fisher Scientific, Waltham, USA). The cells were maintained at 37 °C in a humidified atmosphere containing 5% CO2. […] DMSO was used as solvent control in all assays.
Cell viability was determined using CellTiter-Glo® 2.0 Cell Viability Assay (G9242, Promega, Madison, USA). About 500 cells per 20 μl were seeded in a flat bottom 384-well plate (781098, Greiner bio-one, Kremsmünster, Austria). Increasing concentrations of compounds were deposited on cells using an HP Digital Drug Dispenser (Hewlett-Packard, Palo Alto, USA) with DMSO total volume normalization. After 72 h, the CellTiter-Glo reagent was added (volume/volume) following the manufacturer’s instructions. Luminescence representing the number of viable cells was quantified with a Cytation 3 imaging reader (BioTek, Winooski, USA). […] Prism 9 software (GraphPad Software, San Diego, CA, USA) was used to calculate best-fit values of inhibitor vs. normalized response and to predict IC50.

PI3Kα = conditions: cited from earlier work
PI3Kδ = conditions: cited from earlier work

T1 sequence (P48736 whole entry): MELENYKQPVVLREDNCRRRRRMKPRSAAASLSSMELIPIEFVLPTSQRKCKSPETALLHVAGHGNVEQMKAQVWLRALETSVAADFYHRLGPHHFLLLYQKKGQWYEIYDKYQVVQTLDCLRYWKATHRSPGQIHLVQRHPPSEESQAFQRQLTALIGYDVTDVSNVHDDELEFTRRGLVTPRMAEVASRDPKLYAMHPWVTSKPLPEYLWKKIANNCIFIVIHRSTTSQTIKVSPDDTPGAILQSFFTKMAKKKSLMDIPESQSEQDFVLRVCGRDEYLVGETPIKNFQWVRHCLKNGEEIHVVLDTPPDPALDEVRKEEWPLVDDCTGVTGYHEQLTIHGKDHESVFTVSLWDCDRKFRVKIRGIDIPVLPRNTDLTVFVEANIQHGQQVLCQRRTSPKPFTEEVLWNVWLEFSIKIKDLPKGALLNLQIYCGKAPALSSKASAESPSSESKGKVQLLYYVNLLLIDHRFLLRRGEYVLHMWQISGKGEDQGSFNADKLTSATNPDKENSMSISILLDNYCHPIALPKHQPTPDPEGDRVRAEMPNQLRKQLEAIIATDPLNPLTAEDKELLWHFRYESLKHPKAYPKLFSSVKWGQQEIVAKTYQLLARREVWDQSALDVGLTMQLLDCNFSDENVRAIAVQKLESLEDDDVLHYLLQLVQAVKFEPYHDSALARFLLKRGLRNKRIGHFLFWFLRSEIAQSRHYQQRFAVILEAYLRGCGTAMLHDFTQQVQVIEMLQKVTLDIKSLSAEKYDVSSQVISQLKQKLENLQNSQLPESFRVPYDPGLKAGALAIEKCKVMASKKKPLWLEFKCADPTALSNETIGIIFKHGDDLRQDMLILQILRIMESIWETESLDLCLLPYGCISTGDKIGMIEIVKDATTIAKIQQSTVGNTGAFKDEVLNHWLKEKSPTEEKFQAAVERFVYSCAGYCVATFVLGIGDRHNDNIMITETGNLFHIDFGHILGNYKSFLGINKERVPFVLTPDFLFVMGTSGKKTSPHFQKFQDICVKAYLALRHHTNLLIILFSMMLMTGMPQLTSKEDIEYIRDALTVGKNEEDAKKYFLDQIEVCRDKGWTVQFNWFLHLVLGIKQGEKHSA

| experimentally determined binding constant Kd (PI3Kγ) | Structure (SMILES) | further results |
| --- | --- | --- |
| no observed binding | COc1ccc(-c2cc(C(F)F)n3ncc(C#N)c3n2)cc1OC [Compound 4] | PI3Kγ activity in vitro (biochemical assay), in words (PI3Kγ): inactive in vitro |
| no observed binding | COc1ccc(-c2nnc(C(C)C)s2)cc1OC [Compound 5] | – |
| no observed binding | COc1ccc(-c2nc(-c3ccc(F)cc3)no2)cc1OC [Compound 3] | – |
| no observed binding | COc1ccc(-c2cc(C(F)(F)F)n3ncc(C#N)c3n2)cc1OC [Compound 2] | PI3Kγ activity in vitro (biochemical assay), in words (PI3Kγ): inactive in vitro |
| no observed binding | COc1ccc(-c2cc(CCl)no2)cc1OC [Compound 7] | – |
| no observed binding | COc1ccc(-c2noc(-c3ccc(O)cc3)n2)cc1OC [Compound 13] | – |
| no observed binding | COc1ccc(-c2nc(CN)no2)cc1OC [Compound 12] | – |
| no observed binding | COc1ccc(-c2cnc(N)cc2C)cc1OC [Compound 6] | – |

Continued, molecule first:

| Structure (SMILES) | experimentally determined binding constant Kd (PI3Kγ) | further results |
| --- | --- | --- |
| COc1ccc(-c2nc(-c3ccc(F)cc3)c(-c3ccc(F)cc3)[nH]2)cc1O [Compound 9] | no observed binding | – |
| COc1ccc(-c2nnc(CCl)o2)cc1OC [Compound 11] | no observed binding | – |
| COc1ccc(-c2nc(CCl)c(C)o2)cc1OC [Compound 14] | no observed binding | – |
| COc1ccc(Nc2ncccc2[N+](=O)[O-])cc1OC [Compound 15] | no observed binding | – |
| COc1c(OCCCN2CCOCC2)ccc2c1N=C(NC(=O)c1cnc(N)nc1)N1CCN=C21 [copanlisib, Copanlisib] | – | IC50 [1]: 0.0194 µM; inhibitory activity against PI3Kα (PI3Kα): sub-nanomolar; inhibitory activity against PI3Kδ (PI3Kδ): sub-nanomolar |
| COc1ccc(-c2cnoc2-c2cc(OC)c(OC)c(OC)c2)cc1O [Compound 16] | no observed binding | – |
| CC(C)n1nc(-c2cc(C3CC3)c(O)c(C3CC3)c2)c2c(N)ncnc21 [Compound 21] | – | Kd (PI3Kγ): 0.29 µM |
| CC(C)n1nc(-c2cc(Cl)c(O)c(C3CC3)c2)c2c(N)ncnc21 [Compound 20] | – | Kd (PI3Kγ): 0.12 µM |
| COc1ccc(C(=O)Nc2ccc3ccccc3c2)cc1OC [Compound 8] | no observed binding | – |
| CC(C)n1nc(-c2cc(Cl)c(O)c(Cl)c2)c2c(N)ncnc21 [Compound 22] | – | Kd (PI3Kγ): 0.013 µM; effect on viability at 100 nM ([1]; 100 nM concentration): neither 18 nor 22 caused a significant reduction in viability; IC50 [1]: 0.188 µM |
| COc1ccc(Nc2nc(-c3ccc(Br)cc3)nc3ccccc23)cc1OC [Compound 10] | no observed binding | – |
